Test results: publication PMC5566973 (Frontiers in Pharmacology, 2017)
Like-named read-outs stand apart in the source and are kept apart here.

Legend:
[1] = Cytotoxicity CCK-8 assay in Caco-2 cells; format: cell-based, human; details: human, Caco-2 cells, 12 h incubation, read-out: Cell viability
Procedure: (§1) In brief, the cells were seeded on 96-well plates at 1 × 10^5 cells/mL and cultured in 100 μL of culture medium at incubator for 24 h. […] After 12 h incubation, 10 μL of CCK-8 dye was added to each well, and cells were incubated for another 2 h. Cell viability (%) was calculated using the following Equation (1):
(§2) (1) Cell viability (%)=(ODsample−ODblank)/ (ODcontrol−ODblank) ×100%
(§3) ODsample refers to the absorbance of a well with treated cells and CCK-8. ODblank refers to the absorbance of a well with medium and CCK-8 but without cells. ODcontrol refers to the absorbance of a well with untreated cells and CCK-8. The absorbance at 450 nm was measured by a microplate reader (Biotek Instrument; Gene Co., Ltd., VT, USA), and the results are presented as mean ± SD from triplicate wells.

Caco-2 cells = test: Cytotoxicity CCK-8 assay in Caco-2 cells; format: cell-based, human; details: Caco-2, CCK-8
Procedure: as §1, §2, §3

[2] = tested on: ATP (adenosine triphosphate); test: in vitro; details: human
Procedure: (§4) Caco-2, MDCK and MDCK-MRP2 cells were donated by Prof. Yan Xie and Yueming Ma from Shanghai University of Traditional Chinese Medicine. The cells were grown in culture dishes (Corning® Costar, Cambridge, MA, USA) using DMEM supplemented with 10% FBS, 1% NEAA and 1% penicillin-streptomycin solution. The cells were cultured in 5% CO2 and […] with 90% relative humidity at 37°C. The medium was replaced every other day during incubation. The cells were passaged every 3–4 days between 70 and 80% confluence at a 1:5 split ratio using 0.25% trypsin-EDTA. For the transport experiments, the cells from passages between 30 and 45 were seeded at 1 × 10^5 cells/cm^2 onto permeable polycarbonate inserts (0.45 μm pore size, seeding surface of 0.6 cm^2, Millipore, MA, USA) in 24-well plastic plates. The media in the culture plates were changed every other day for the first week after seeding and were replaced daily afterward. […] The cells were used for the transport experiments 21–28 (Caco-2) or 5–7 (MDCK and MDCK-MRP2) days after seeding, and only monolayers with a TEER-value above 420 Ω cm^2 were used during the studies.
(§5) The apical (AP) and basolateral (BL) sides are typical of polarized Caco-2, MDCK and MDCK-MRP2 epithelial cells. Before the experiments, the polarized cell monolayers were washed twice with warm HBSS solution and subsequently preincubated (37°C, 30 min). Afterward, HBSS solution on both sides of the cell monolayers was removed using a mini desktop vacuum pump. […] The final DMSO concentration in the HBSS or drug mixture was below 0.5%. The monolayers were incubated at 37°C, and 100 μL samples were taken at 30, 60, 90, and 120 min from the acceptor compartment and immediately replaced with the same volume of prewarmed fresh blank HBSS. TEER measurements for assessing the membrane integrity took place before and after the experiments.
(§6) The apparent permeability coefficients (Papp) and ER were calculated as Equations (2) and (3): […]
(§7) where dQ/dt is the steady-state flux, A is the membrane surface area, and C0 is the initial drug concentration in the donor compartment. PappBA is the Papp-value measured in BL to AP direction and PappAB is the Papp-value measured in AP to BL direction. It indicated the involvement of an active transport process when the ER-value is above 1.5 (Hubatsch et al., [2007]).

MDR1 = test: in vitro; details: human, Caco-2, 2 μM; for efflux ratio: Caco-2, ER; for Papp B→A: Caco-2, PappBA
Procedure: as §4, §5, §6, §7

MRP2 = test: in vitro; details: human; for efflux ratio: Caco-2, ER, Caco-2, 2 μM
Procedure: as §4, §5, §6, §7

OATs = test: in vitro; details: human, Caco-2, 2 μM, + Cimetidine 0.05 mM (OATs)
Procedure: as §4, §5, §6, §7

in vitro = test: in vitro
Procedure: as §4, §5, §6, §7

PEPT1 = test: in vitro; details: human
Procedure: as §4, §5, §6, §7

Na+/K+-ATPase = test: in vitro; details: human; for Papp B→A: Caco-2, PappBA
Procedure: as §4, §5, §6, §7

OATPs = test: in vitro; details: human
Procedure: as §4, §5, §6, §7

MDCK cell monolayers = test: in vitro
Procedure: as §4, §5, §6, §7

[3] = dog, MDCK, PappAB, initial concentration 1 μM
[4] = dog, MDCK, PappAB, initial concentration 2 μM
[5] = dog, MDCK, PappAB, initial concentration 5 μM
[6] = dog, MDCK, PappBA, initial concentration 1 μM
[7] = dog, MDCK, PappBA, initial concentration 2 μM
[8] = dog, MDCK, PappBA, initial concentration 5 μM
[9] = dog, MDCK, pH 5.5, PappAB, 2 μM, pH 5.5
[10] = dog, MDCK, pH 5.5, PappBA, 2 μM, pH 5.5
[11] = human, Caco-2, PappAB, Caco-2, initial concentration 1 μM
[12] = human, Caco-2, PappAB, Caco-2, initial concentration 5 μM
[13] = human, Caco-2, PappBA, Caco-2, 2 μM, 4°C
[14] = human, Caco-2, PappBA, Caco-2, initial concentration 1 μM
[15] = human, Caco-2, PappBA, Caco-2, initial concentration 2 μM
[16] = human, Caco-2, PappBA, Caco-2, initial concentration 5 μM
[17] = human, Caco-2, pH 5.5, PappAB, Caco-2, 2 μM, pH 5.5
[18] = human, Caco-2, pH 5.5, PappBA, Caco-2, 2 μM, pH 5.5
[19] = Caco-2, 2 μM, + Sodium vanadate 0.05 mM (Na^+)
[20] = 2 μM, Control (pH 7.4, 37°C, without EDTA)
[21] = 2 μM, with EDTA 5 mM, listed as harmaline

## COc1ccc2c3c([nH]c2c1)C(C)=NCC3 [Harmaline]
[1]; Caco-2, up to 25 μM
  viability at 12 h: > 90%
Caco-2 cells
  concentration without toxicity or decreased cell viability: up to 25 μM
  drug concentration producing notable toxicity: higher than 100 μM
[2]; Caco-2, ER, Caco-2, 2 μM, + NaN3 10 mM (ATP)
  efflux ratio: 1.15
MDR1; + Quinidine 0.1 mM (MDR1)
  efflux ratio: 0.96
MDR1; + Verapamil 0.1 mM (MDR1)
  efflux ratio: 0.94
MRP2; + MK571 0.05 mM (MRP2)
  efflux ratio: 0.93
MRP2; + Probenecid 0.2 mM (MRP2)
  efflux ratio: 0.96
OATs; Caco-2, ER
  efflux ratio: 0.97
In vitro; dog, MDCK, ER, 2 μM, 4°C
  efflux ratio: 1.23
In vitro; dog, MDCK, ER, 2 μM, with EDTA 5 mM
  efflux ratio: 0.9
In vitro; dog, MDCK, ER, initial concentration 1 μM
  efflux ratio: 1.23
In vitro; dog, MDCK, ER, initial concentration 2 μM
  efflux ratio: 1.03
In vitro; dog, MDCK, ER, initial concentration 5 μM
  efflux ratio: 1.16
In vitro; [3]
  Papp A→B: 15.8 ± 1.76 ×10⁻⁶ cm/s
In vitro; [4]
  Papp A→B: 20.4 ± 1.82 ×10⁻⁶ cm/s
In vitro; [5]
  Papp A→B: 21.2 ± 1.32 ×10⁻⁶ cm/s
In vitro; [6]
  Papp B→A: 19.5 ± 2.25 ×10⁻⁶ cm/s
In vitro; [7]
  Papp B→A: 21 ± 2.11 ×10⁻⁶ cm/s
In vitro; [8]
  Papp B→A: 24.5 ± 2.54 ×10⁻⁶ cm/s
In vitro; dog, MDCK, pH 5.5, ER, 2 μM, pH 5.5
  efflux ratio: 1.18
In vitro; [9]
  Papp A→B: 13 ± 2.54 ×10⁻⁶ cm/s
In vitro; [10]
  Papp B→A: 15.4 ± 0.91 ×10⁻⁶ cm/s
In vitro; dog, MDCK, pH 7.4, ER, 2 μM, Control (pH 7.4, 37°C, without EDTA)
  efflux ratio: 1.03
In vitro; human, Caco-2, ER, Caco-2, 2 μM, 4°C
  efflux ratio: 1.15
In vitro; human, Caco-2, ER, Caco-2, 2 μM, Control (no inhibitor or substrate)
  efflux ratio: 0.95
In vitro; human, Caco-2, ER, Caco-2, 2 μM, with EDTA 5 mM
  efflux ratio: 1.12
In vitro; human, Caco-2, ER, Caco-2, initial concentration 1 μM
  efflux ratio: 0.93
In vitro; human, Caco-2, ER, Caco-2, initial concentration 2 μM
  efflux ratio: 0.95
In vitro; human, Caco-2, ER, Caco-2, initial concentration 5 μM
  efflux ratio: 1.03
In vitro; [11]
  Papp A→B: 27.4 ± 1.44 ×10⁻⁶ cm/s
In vitro; [12]
  Papp A→B: 30.1 ± 3.01 ×10⁻⁶ cm/s
In vitro; [13]
  Papp B→A: 8.71 ± 1.83 ×10⁻⁶ cm/s
In vitro; [14]
  Papp B→A: 25.6 ± 1.95 ×10⁻⁶ cm/s
In vitro; [15]
  Papp B→A: 26.4 ± 0.49 ×10⁻⁶ cm/s
In vitro; [16]
  Papp B→A: 31 ± 1.4 ×10⁻⁶ cm/s
In vitro; human, Caco-2, pH 5.5, ER, Caco-2, 2 μM, pH 5.5
  efflux ratio: 0.88
In vitro; [17]
  Papp A→B: 7.6 ± 0.74 ×10⁻⁶ cm/s
In vitro; [18]
  Papp B→A: 6.72 ± 0.76 ×10⁻⁶ cm/s
In vitro; human, Caco-2, pH 7.4, ER, Caco-2, 2 μM, Control (pH 7.4, 37°C, without EDTA)
  efflux ratio: 0.95
PEPT1; Caco-2, ER, Caco-2, 2 μM, + Gly-Sar 10 mM (PEPT1)
  efflux ratio: 0.95
Na+/K+-ATPase; Caco-2, ER, Caco-2, 2 μM, + Sodium vanadate 0.05 mM (Na^+)
  efflux ratio: 1.27
Na+/K+-ATPase; [19]
  Papp B→A: 26.9 ± 1.26 ×10⁻⁶ cm/s
OATPs; Caco-2, ER, Caco-2, 2 μM, + ES 0.05 mM (OATPs)
  efflux ratio: 1.12
MDCK cell monolayers; 2 μM
  PappAB at 37°C relative to 4°C: 3.77 folds
  PappAB at pH 7.4 relative to pH 5.5: 1.56 folds
MDCK cell monolayers; 2 μM, 4°C
  PappAB: 5.40 ± 0.99^*** 1 × 10^−6 cm/s
  PappBA: 6.65 ± 0.64^*** 1 × 10^−6 cm/s
MDCK cell monolayers; [20]
  PappAB: 20.36 ± 1.82 1 × 10^−6 cm/s
  PappBA: 21.03 ± 2.11 1 × 10^−6 cm/s
MDCK cell monolayers; 2 μM, with EDTA 5 mM
  PappAB: 29.43 ± 1.45^* 1 × 10^−6 cm/s
  PappBA: 26.34 ± 0.93^* 1 × 10^−6 cm/s
MDCK cell monolayers; [21]
  PappAB: 29.43 ± 1.45 1 × 10^−6 cm/s
  PappBA: 26.34 ± 0.93 1 × 10^−6 cm/s

## COc1ccc2c(c1)[nH]c1c(C)nccc12 [Harmine]
[1]; Caco-2, up to 5 μM
  viability at 12 h: > 90%
Caco-2 cells
  concentration without toxicity or decreased cell viability: up to 5 μM
  drug concentration producing notable toxicity: > 25 µM
[2]; Caco-2, PappAB
  Papp A→B: 14.1 ± 0.39 ×10⁻⁶ cm/s
MDR1; + Quinidine 0.1 mM (MDR1)
  Papp B→A: 29 ± 3.96 ×10⁻⁶ cm/s
MDR1; + Verapamil 0.1 mM (MDR1)
  Papp B→A: 28.5 ± 3.77 ×10⁻⁶ cm/s
MRP2; Caco-2, PappAB
  Papp A→B: 29.9 ± 2.14 ×10⁻⁶ cm/s
OATs; Caco-2, PappBA
  Papp B→A: 27.6 ± 1.54 ×10⁻⁶ cm/s
In vitro; [3]
  Papp A→B: 3.7 ± 0.14 ×10⁻⁶ cm/s
In vitro; [4]
  Papp A→B: 4.6 ± 0.25 ×10⁻⁶ cm/s
In vitro; [5]
  Papp A→B: 7.11 ± 0.89 ×10⁻⁶ cm/s
In vitro; [6]
  Papp B→A: 5.81 ± 0.19 ×10⁻⁶ cm/s
In vitro; [7]
  Papp B→A: 7.32 ± 0.19 ×10⁻⁶ cm/s
In vitro; [8]
  Papp B→A: 11.6 ± 0.15 ×10⁻⁶ cm/s
In vitro; [9]
  Papp A→B: 2.24 ± 0.29 ×10⁻⁶ cm/s
In vitro; [10]
  Papp B→A: 3.42 ± 0.48 ×10⁻⁶ cm/s
In vitro; human, Caco-2, PappAB, Caco-2, 2 μM, 4°C
  Papp A→B: 1.58 ± 0.57 ×10⁻⁶ cm/s
In vitro; [11]
  Papp A→B: 15.1 ± 0.73 ×10⁻⁶ cm/s
In vitro; human, Caco-2, PappAB, Caco-2, initial concentration 2 μM
  Papp A→B: 18.8 ± 1.26 ×10⁻⁶ cm/s
In vitro; [12]
  Papp A→B: 31.1 ± 1.42 ×10⁻⁶ cm/s
In vitro; [13]
  Papp B→A: 2.41 ± 0.85 ×10⁻⁶ cm/s
In vitro; [14]
  Papp B→A: 22.8 ± 0.25 ×10⁻⁶ cm/s
In vitro; [15]
  Papp B→A: 29.3 ± 1.21 ×10⁻⁶ cm/s
In vitro; [16]
  Papp B→A: 48.3 ± 2.81 ×10⁻⁶ cm/s
In vitro; [17]
  Papp A→B: 5.27 ± 0.29 ×10⁻⁶ cm/s
In vitro; [18]
  Papp B→A: 4.17 ± 1.03 ×10⁻⁶ cm/s
PEPT1; Caco-2, PappAB
  Papp A→B: 18.3 ± 1.28 ×10⁻⁶ cm/s
Na+/K+-ATPase; Caco-2, PappAB
  Papp A→B: 13.1 ± 0.93 ×10⁻⁶ cm/s
Na+/K+-ATPase; [19]
  Papp B→A: 26.2 ± 1.78 ×10⁻⁶ cm/s
OATPs; Caco-2, PappAB
  Papp A→B: 14.6 ± 1.31 ×10⁻⁶ cm/s
MDCK cell monolayers; 2 μM, 4°C
  PappAB: 1.85 ± 0.55^*** 1 × 10^−6 cm/s
MDCK cell monolayers; [20]
  PappAB: 4.60 ± 0.25 1 × 10^−6 cm/s
MDCK cell monolayers; 2 μM, with EDTA 5 mM
  PappAB: 7.47 ± 1.31^* 1 × 10^−6 cm/s
  PappBA: 8.98 ± 0.90 1 × 10^−6 cm/s
MDCK cell monolayers; 2 μM, with EDTA 5 mM, listed as harmine
  PappAB: 7.47 ± 1.31 1 × 10^−6 cm/s
MDCK cell monolayers; dog, pH 7.4
  PappBA: 7.32 ± 0.19 1 × 10^−6 cm/s
